# Test results: patent US20260098061A1, “EPHA2-BINDING PENDING PEPTIDE AND COMPOSITION COMPRISING SAME” (PeptiDream Inc., priority 2022, published 2026)
# Numbered stars: 1 amine (or outer) side, 2 acyl side, 3 side chain; on linkers, the order of the positions; unused ones are H or OH. Bridge positions count the residues as written; N and C are the ends. Square brackets hold non-standard residues; d marks the D form. Primed or numbered codes have the meaning given here. Side chains are listed from the residue outwards. Peptide text beside a SMILES is read from it. * marks the point of attachment. Hgn(3) = 2-amino-5-carbamoylpentanoic acid (homoglutamine), NC(=O)CCC[C@H](N[*:1])C(=O)[*:2]; NH(1-deoxy-D-glucityl) = OC[C@@H](O)[C@@H](O)[C@H](O)[C@@H](O)CN*; Trp(1-Me,7-Cl) = Cn1cc(C[C@H](N)C(=O)O)c2cccc(Cl)c21; dPhe(3-CONH2) = NC(=O)c1cccc(C[C@@H](N)C(=O)O)c1; X6 = Cn1cc(C[C@H](N[*:1])C(=O)[*:2])c2cccnc21; NMePhe(4-Cl) = CN[C@@H](Cc1ccc(Cl)cc1)C(=O)O; Piperazinyl(4-CH2COOH) = O=C(O)CN1CCN(*)CC1; Trp(1-Me) = Cn1cc(C[C@H](N)C(=O)O)c2ccccc21; NMe3Pal = CN[C@@H](Cc1cccnc1)C(=O)O; NMeF = CN[C@@H](Cc1ccccc1)C(=O)O; hArg = N=C(N)NCCCC[C@H](N)C(=O)O; hCit = NC(=O)NCCCC[C@H](N)C(=O)O; Gly(cBu) = N[C@H](C(=O)O)C1CCC1; NMeE = CN[C@@H](CCC(=O)O)C(=O)O; Aad = N[C@@H](CCCC(=O)O)C(=O)O; NMeN = CN[C@@H](CC(N)=O)C(=O)O; Chg = N[C@H](C(=O)O)C1CCCCC1; CO = O=C([*:1])[*:2]; βAla = NCCC(=O)O
# Target: T1, Recombinant Human EphA2 Fc Protein (Homo sapiens, UniProt P29317)
# T1 construct: purchased Elabscience
# Assay: SPR interaction analysis (Biacore T200), kinetics of peptides against EphA2
# Type: binding
# Details: Recombinant Human EphA2 Fc Protein captured by Human Antibody Capture kit; single-cycle kinetics; 25° C.; HBS-P+ buffer with 1% DMSO
# Summary of the method: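 On a Biacore T200 at 25° C, Fc-tagged human EphA2 was captured via anti-human antibody; peptides ran as five serial dilutions in HBS-P+ pH 7.4 with 1% DMSO by single-cycle kinetics. Baseline-subtracted data fitted for ka and kd, from which KD was derived.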
row,Molecule,Kd
1,"CC(=O)NCCCC[C@@H](NC(=O)CCNC(=O)[C@@H]1CSCC(=O)N[C@H](CCCCNC(=O)N2CCN(CC(=O)O)CC2)C(=O)N(C)[C@@H](Cc2cccnc2)C(=O)N[C@@H](CC(N)=O)C(=O)N[C@@H](CC(C)C)C(=O)N[C@@H](CCCCNC(=O)N2CCN(CC(=O)O)CC2)C(=O)N(C)[C@@H](Cc2ccccc2)C(=O)N[C@@H](Cc2cn(C)c3ccccc23)C(=O)N[C@@H](C(C)C)C(=O)N[C@@H](Cc2cn(C)c3ccccc23)C(=O)N[C@@H]([C@@H](C)O)C(=O)N[C@@H](CCC(=O)O)C(=O)N1)C(N)=O [PDC_EphA2-00008085, dkCOpipzaa-Me3Py-N-L-KCOpipzaa-MeF-W1Me-V-W1Me-T-E-C-bA-dkAc-NH2] ({CH2CO}-[dK]([CO-Piperazinyl(4-CH2COOH)])[NMe3Pal]NLK([CO-Piperazinyl(4-CH2COOH)])[NMeF][Trp(1-Me)]V[Trp(1-Me)]TEC[βAla][dK](Ac)-NH2; thioether N-12)",1 to 10 nM
2,"C[C@H]1NC(=O)CSC[C@@H](C(N)=O)NC(=O)[C@H](CCCC(N)=O)NC(=O)[C@H]([C@@H](C)O)NC(=O)[C@H](Cc2cn(C)c3ccccc23)NC(=O)[C@H](CCCCNC(=O)N2CCN(CC(=O)O)CC2)NC(=O)[C@H](Cc2cn(C)c3ncccc23)NC(=O)[C@H](Cc2ccccc2)N(C)C(=O)[C@H](CCCC(N)=O)NC(=O)[C@H](C2CCC2)NC(=O)[C@H](CC(N)=O)NC(=O)[C@H](Cc2cccnc2)N(C)C1=O [PDC_EphA2-00010002, da-Me3Py-N-Cbg-Hgn-MeF-W1Me7N-KCOpipzaa-W1Me-T-Hgn-C-NH2] ({CH2CO}-[dA][NMe3Pal]N[Gly(cBu)][Aad](NH2)[NMeF][X6]K([CO-Piperazinyl(4-CH2COOH)])[Trp(1-Me)]T[Aad](NH2)C-NH2; thioether N-12)",< 1 nM
3,"CC(C)C[C@@H]1NC(=O)[C@H](CC(N)=O)NC(=O)[C@H](Cc2cccnc2)N(C)C(=O)[C@@H](Cc2cccc(C(N)=O)c2)NC(=O)CSC[C@@H](C(N)=O)NC(=O)[C@H](CC(N)=O)NC(=O)[C@H]([C@@H](C)O)NC(=O)[C@H](Cc2cn(C)c3ccccc23)NC(=O)[C@H](CCC(=O)NC[C@H](O)[C@@H](O)[C@H](O)[C@H](O)CO)NC(=O)[C@H](Cc2cn(C)c3c(Cl)cccc23)NC(=O)[C@H](CC(N)=O)N(C)C(=O)[C@H](CC(N)=O)NC1=O [PDC_EphA2-00026425, df3CON-Me3Py-N-L-N-MeN-W1Me7Cl-Qglucamine-W1Me-T-N-C-NH2] ({CH2CO}-[dPhe(3-CONH2)][NMe3Pal]NLN[NMeN][Trp(1-Me,7-Cl)]E(NH(1-deoxy-D-glucityl))[Trp(1-Me)]TNC-NH2; thioether N-12)",< 1 nM
4,"CC(=O)NCCCC[C@@H](NC(=O)CCNC(=O)[C@@H]1CSCC(=O)N[C@H](C)C(=O)N(C)[C@@H](Cc2cccnc2)C(=O)N[C@@H](CC(N)=O)C(=O)N[C@@H](CC(C)C)C(=O)N[C@@H](CCCC(=O)O)C(=O)N(C)[C@@H](CCC(=O)O)C(=O)N[C@@H](Cc2cn(C)c3ccccc23)C(=O)N[C@@H](CCCCNC(=O)N2CCN(CC(=O)O)CC2)C(=O)N[C@@H](Cc2cn(C)c3ccccc23)C(=O)N[C@@H]([C@@H](C)O)C(=O)N[C@@H](CCCC(N)=O)C(=O)N1)C(N)=O [PDC_EphA2-00008094, da-Me3Py-N-L-Hgl-MeE-W1Me-KCOpipzaa-W1Me-T-Hgn-C-bA-dkAc-NH2] ({CH2CO}-[dA][NMe3Pal]NL[Aad][NMeE][Trp(1-Me)]K([CO-Piperazinyl(4-CH2COOH)])[Trp(1-Me)]T[Aad](NH2)C[βAla][dK](Ac)-NH2; thioether N-12)",< 1 nM
5,"C[C@H]1NC(=O)CSC[C@@H](C(N)=O)NC(=O)[C@H](CCCC(N)=O)NC(=O)[C@H]([C@@H](C)O)NC(=O)[C@H](Cc2cn(C)c3ccccc23)NC(=O)[C@H](CCCCNC(=O)N2CCN(CC(=O)O)CC2)NC(=O)[C@H](Cc2cn(C)c3ccccc23)NC(=O)[C@H](Cc2ccc(Cl)cc2)N(C)C(=O)[C@H](CCCC(N)=O)NC(=O)[C@H](C2CCCCC2)NC(=O)[C@H](CC(N)=O)NC(=O)[C@H](Cc2cccnc2)N(C)C1=O [PDC_EphA2-00018538, da-Me3Py-N-Chg-Hgn-MeF4C-W1Me-KCOpipzaa-W1Me-T-Hgn-C-NH2] ({CH2CO}-[dA][NMe3Pal]N[Chg][Aad](NH2)[NMePhe(4-Cl)][Trp(1-Me)]K([CO-Piperazinyl(4-CH2COOH)])[Trp(1-Me)]T[Aad](NH2)C-NH2; thioether N-12)",< 1 nM

# Other lines, results leading:
row,Kd,Molecule
1,< 1 nM,"C[C@@H](O)[C@@H]1NC(=O)[C@H](Cc2cn(C)c3ccccc23)NC(=O)[C@H](CCC(=O)NC[C@H](O)[C@@H](O)[C@H](O)[C@H](O)CO)NC(=O)[C@H](Cc2cn(C)c3c(Cl)cccc23)NC(=O)[C@H](Cc2ccccc2)N(C)C(=O)[C@H](CCCC(N)=O)NC(=O)[C@H](C2CCC2)NC(=O)[C@H](CC(N)=O)NC(=O)[C@H](Cc2cccnc2)N(C)C(=O)[C@@H](Cc2cccc(C(N)=O)c2)NC(=O)CSC[C@@H](C(N)=O)NC(=O)[C@H](CCCC(N)=O)NC1=O [PDC_EphA2-00019433, df3CON-Me3Py-N-Cbg-Hgn-MeF-W1Me7Cl-Qglucamine-W1Me-T-Hgn-C-NH2] ({CH2CO}-[dPhe(3-CONH2)][NMe3Pal]N[Gly(cBu)][Aad](NH2)[NMeF][Trp(1-Me,7-Cl)]E(NH(1-deoxy-D-glucityl))[Trp(1-Me)]T[Aad](NH2)C-NH2; thioether N-12)"
2,< 1 nM,"C[C@@H](O)[C@@H]1NC(=O)[C@H](Cc2cn(C)c3ccccc23)NC(=O)[C@H](CCC(=O)NC[C@H](O)[C@@H](O)[C@H](O)[C@H](O)CO)NC(=O)[C@H](Cc2cn(C)c3c(Cl)cccc23)NC(=O)[C@H](Cc2ccccc2)N(C)C(=O)[C@H](CCCCNC(=O)N2CCN(CC(=O)O)CC2)NC(=O)[C@H](C2CCC2)NC(=O)[C@H](CC(N)=O)NC(=O)[C@H](Cc2cccnc2)N(C)C(=O)[C@@H](Cc2cccc(C(N)=O)c2)NC(=O)CSC[C@@H](C(N)=O)NC(=O)[C@H](CCCC(N)=O)NC1=O [PDC_EphA2-00019442, df3CON-Me3Py-N-Cbg-KCOpipzaa-MeF-W1Me7Cl-Qglucamine-W1Me-T-Hgn-C-NH2] ({CH2CO}-[dPhe(3-CONH2)][NMe3Pal]N[Gly(cBu)]K([CO-Piperazinyl(4-CH2COOH)])[NMeF][Trp(1-Me,7-Cl)]E(NH(1-deoxy-D-glucityl))[Trp(1-Me)]T[Aad](NH2)C-NH2; thioether N-12)"
3,< 1 nM,"CNC(=O)C[C@@H]1NC(=O)[C@H]([C@@H](C)O)NC(=O)[C@H](Cc2cn(C)c3ccccc23)NC(=O)[C@H](CCCCNC(=O)N2CCN(CC(=O)O)CC2)NC(=O)[C@H](Cc2cn(C)c3ccccc23)NC(=O)[C@H](Cc2ccccc2)N(C)C(=O)[C@H](CCCC(N)=O)NC(=O)[C@H](C2CCCCC2)NC(=O)[C@H](CC(N)=O)NC(=O)[C@H](Cc2cccnc2)N(C)C(=O)[C@@H](C)NC(=O)CSC[C@@H](C(N)=O)NC1=O [PDC_EphA2-00018539, da-Me3Py-N-Chg-Hgn-MeF-W1Me-KCOpipzaa-W1Me-T-Nmm-C-NH2] ({CH2CO}-[dA][NMe3Pal]N[Chg][Aad](NH2)[NMeF][Trp(1-Me)]K([CO-Piperazinyl(4-CH2COOH)])[Trp(1-Me)]TD(NHMe)C-NH2; thioether N-12)"
4,< 1 nM,"C[C@@H](O)[C@@H]1NC(=O)[C@H](Cc2cn(C)c3ccccc23)NC(=O)[C@H](CCCCNC(=O)N2CCN(CC(=O)O)CC2)NC(=O)[C@H](Cc2cn(C)c3c(Cl)cccc23)NC(=O)[C@H](Cc2ccccc2)N(C)C(=O)[C@H](CCCCNC(=O)N2CCN(CC(=O)O)CC2)NC(=O)[C@H](C2CCC2)NC(=O)[C@H](CC(N)=O)NC(=O)[C@H](Cc2cccnc2)N(C)C(=O)[C@@H](Cc2cccc(C(N)=O)c2)NC(=O)CSC[C@@H](C(N)=O)NC(=O)[C@H](CCCC(N)=O)NC1=O [PDC_EphA2-00019441, df3CON-Me3Py-A-Cbg-KCOpipzaa-MeF-W1Me7Cl-KCOpipzaa-W1Me-T-Hgn-C-NH2] ({CH2CO}-[dPhe(3-CONH2)][NMe3Pal]N[Gly(cBu)]K([CO-Piperazinyl(4-CH2COOH)])[NMeF][Trp(1-Me,7-Cl)]K([CO-Piperazinyl(4-CH2COOH)])[Trp(1-Me)]T[Aad](NH2)C-NH2; thioether N-12)"
5,< 1 nM,"CN1C(=O)[C@H](CCC(=O)NC[C@H](O)[C@@H](O)[C@H](O)[C@H](O)CO)NC(=O)[C@H](C2CCC2)NC(=O)[C@H](CC(N)=O)NC(=O)[C@H](Cc2cccnc2)N(C)C(=O)[C@@H](Cc2cccc(C(N)=O)c2)NC(=O)CSC[C@@H](C(N)=O)NC(=O)[C@H](Cc2cn(C)c3ccccc23)NC(=O)[C@H](CCCCNC(=O)N2CCN(CC(=O)O)CC2)NC(=O)[C@H](Cc2cn(C)c3c(Cl)cccc23)NC(=O)[C@@H]1Cc1cccnc1 [PDC_EphA2-00026603, df3CON-Me3Py-N-Cbg-Qglucamine-Me3Py-W1Me7Cl-KCOpipzaa-W1Me-C-NH2] ({CH2CO}-[dPhe(3-CONH2)][NMe3Pal]N[Gly(cBu)]E(NH(1-deoxy-D-glucityl))[NMe3Pal][Trp(1-Me,7-Cl)]K([CO-Piperazinyl(4-CH2COOH)])[Trp(1-Me)]C-NH2; thioether N-10)"

# Target: T2, Recombinant Human EphA2 Fc Protein (Fc tag, Elabscience) (human, UniProt P29317 24-534)
# T2 construct: Bought protein (Elabscience), captured with the Human Antibody Capture kit; also called hEphA2; not shown: Fc tag of the commercial protein
# Assay: SPR Biacore T200, EphA2-Fc captured, single-cycle kinetics; grade, legend 0 < A ≤ 1 nM
# Details: not given
# Protocol: The HBS-P+ buffer (10 mM HEPES (pH7.4), 150 mM NaCl, 0.05% (v/V) Surfactant P20) containing 1% DMSO was used as running buffer. Recombinant Human EphA2 Fc Protein (Fc tag, Elabscience) was captured by Human Antibody Capture kit (Cytiva). Peptide samples in DMSO were diluted with running buffer, and prepared five serial dilutions. Using these serial dilutions, kinetics of peptides against EphA2 was measured at a flow rate of 30 mL/min at 25° C. The method adopted for sample measurement was a single-cycle kinetics method. The analysis was conducted using the evaluation software 3.0 provided with Biacore T200. Kinetics fitting was done on the difference data obtained by subtracting the baseline data from sample measurement data. KD values were calculated based on the association rate constant (ka) and dissociation rate constant (kd).
# T2 sequence (P29317 24-534 limits assumed): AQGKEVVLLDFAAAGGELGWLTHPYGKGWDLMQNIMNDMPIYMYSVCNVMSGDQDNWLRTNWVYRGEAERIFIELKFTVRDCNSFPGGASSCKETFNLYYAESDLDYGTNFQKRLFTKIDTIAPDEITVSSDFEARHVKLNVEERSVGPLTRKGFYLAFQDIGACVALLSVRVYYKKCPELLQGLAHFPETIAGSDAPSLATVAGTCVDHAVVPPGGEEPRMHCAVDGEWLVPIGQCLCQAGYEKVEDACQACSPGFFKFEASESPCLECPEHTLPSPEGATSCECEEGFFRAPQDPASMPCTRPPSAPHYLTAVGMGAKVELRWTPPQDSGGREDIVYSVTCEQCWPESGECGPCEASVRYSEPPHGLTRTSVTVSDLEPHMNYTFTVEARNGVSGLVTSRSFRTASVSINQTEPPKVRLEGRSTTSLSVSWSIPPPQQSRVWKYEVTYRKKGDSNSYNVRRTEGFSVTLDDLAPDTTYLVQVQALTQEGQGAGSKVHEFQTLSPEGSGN
row,Kd,Molecule
1,≤ 1 nM,"{CH2CO}-[dPhe(3-CONH2)][NMeF]N[Gly(cBu)][Hgn(3)][NMeE][Trp(1-Me,7-Cl)][hCit][Trp(1-Me)]T[hArg]C-NH2 (thioether N-12) [PDC_EphA2-00019427]"
